The values that follow come from patent publication US20210113523A1, “Compositions For Treating And/Or Preventing Photodynamic Therapy Side Effects” (AC BIOSCIENCE SA, priority 2018, published 2021).

Read-outs that look alike come from different tables or passages of the source.

In one test the test system is human neutrophils. The experiment in a line: ROS production of PMA-activated neutrophils (chemiluminescence). It counts as cell-based. To be noted: activation by 100 ng/ml PMA; FIG. 1. The protocol:
ROS production is measured using a chemiluminescence standard procedure: briefly, one hundred microliters of human neutrophils (4×10^6/mL) were primed with TNF-α at 37° C. for 25 minutes. 100 μL luminol (1 μM final concentration) and HRP (62.5 U/mL final concentration) in HBSS were added, and 150-μL aliquots were transferred to a prewarmed 96-well luminometer plate. Light emission was recorded by a Berthold MicroLumat Plus luminometer (Berthold Technologies, Hartfordshire, United Kingdom) (data output is in relative light units per second)

The next test deals with activated mast cells. In words: IL6 release from activated mast cells. Type of test: cell-based. As to conditions: primed mast cells activated by anti IgE, 6 hours; FIG. 2. How it is done:
Mast cells were obtained from CD34+ progenitors cultivated during 8 weeks in the presence of stem cell factor and IL3. Some mast cells (light grey with spots) were primed during 5 days by IL4 and IgE. Primed mast cells were activated by anti IgE and IL6 release is measured 6 hours following the activation. Masitinib (Masi) a c-kit receptor inhibitor is taken as positive control. Dark grey corresponds to the basal release of IL6 in the absence of mast cells activation. Maximum release of resting mast cells were obtained by the use of a calcium ionophore.

The next test concerns mast cells. In words: Mast cell degranulation estimated by beta-hexosaminidase release (IgE/anti-IgE). Type of test: cell-based. To be noted: 1 hour after IgE stimulation. How it is done: Degranulation was induced by the addition of IgE followed by the addition of anti-IgE Beta-hexosaminidase was measured 1 hour after IgE stimulation. Reference molecule was cromoglycate.

The conditions of test [1]: read-out: NO scavenging IC50; cited from earlier work.
The conditions of test [2]: read-out: 2,2-diphenyl-1-picrylhydrazyl scavenging IC50; cited from earlier work.
For test [3] the following is noted: 10 mg/kg; cited from earlier work.
The test system of test [4] is Chick Chorioallantoic Membrane (CAM) vessel network. In words: CAM vessel network following PDT irradiation. It counts as in vivo. How it is done: 5-ALA (20 mg/ml; pH=6.8) was topically applied on CAM 4 hours before PDT □ For Catechin samples, Catechin (at different concentrations: 1-30 μM) was topically applied on CAM 15 min before PDT-PDT: λ=405 nm irradiance=2.86 mW/cm2 light dose=1.2 J/cm2-10 μM Catechin has the most protective effect against PDT deleterious effect. 5-ALA: aminolevulinique acid.

[5] abbreviates: 10−4 M, control without IgE 0.132.
Where [6] appears, read: 10−5 M, control without IgE 0.135.

With `O=C1c2c(O)cc(O)cc2O[C@H](c2ccc(O)c(O)c2)[C@H]1O` [DHQ, Dihydroquercetin], the “reactive oxygen species (ROS) production by neutrophils” value in the test on human neutrophils is on record as “inhibitory effect”. The “IL6 release from activated mast cells” value with activated mast cells is “inhibitor of IL6 release”. The beta-hexosaminidase release with mast cells (setting [5]) is on record as 0.28; in the test on mast cells (setting [6]), 0.52.
For orientation: IC50 means the midpoint of a concentration-inhibition curve. In the case of `Oc1cc(O)cc(/C=C/c2ccc(O)cc2O)c1` [Oxyresveratrol], the IC50 in test [1] is 45.3 µM. Also, in test [2], the IC50 is 28.9 µM. In addition, in test [3], the brain infarct volume result is listed as “reducing”, the caspase-3 activation entry is “reducing” and the cytochrome c release result is listed as “reducing”.
`O=C(O)c1cc(=O)c2c(OCC(O)COc3cccc4oc(C(=O)O)cc(=O)c34)cccc2o1` [Reference molecule, cromoglycate, reference compound]: the values for the beta-hexosaminidase release in the test on mast cells (setting [5]) and with mast cells (setting [6]) were 0.34 and 0.48, respectively.
(+)Catechin: the “Catechin concentration at which microvessel protection is evidenced (as low as)” value in test [4] (presence of microvessels in the CAM vasculature network, FIG. 5A) was determined as 1 µM. In addition, the “Catechin concentration with the most protective effect against PDT deleterious effect” value in test [4] (topically applied on CAM 15 min before PDT, tested 1-30 μM, 5-ALA 20 mg/ml) was determined as 10 µM.
